Active and inactive are the calls of the source. The rule behind the calls is not given here.
What was measured:
Assay type in all cases: functional, organism-based
Acodontaster conspicuus [1] = assay: Antimicrobial activity against Acodontaster conspicuus McM11.5 at 20 degC after 72 hrs by paper disk method
Acodontaster conspicuus [2] = assay: Antimicrobial activity against Acodontaster conspicuus McM32.2 at 20 degC after 48 hrs by paper disk method
Acodontaster conspicuus [3] = assay: Antimicrobial activity against Acodontaster conspicuus McM13.3 at 20 degC after 48 hrs by paper disk method
Acodontaster conspicuus [4] = assay: Antimicrobial activity against Acodontaster conspicuus McM18.1 at 20 degC after 48 hrs by paper disk method

| SMILES | Activity (Acodontaster conspicuus [1]) | Activity (Acodontaster conspicuus [2]) | Activity (Acodontaster conspicuus [3]) | Activity (Acodontaster conspicuus [4]) |
| --- | --- | --- | --- | --- |
| CO[C@H]1[C@H](O[C@H]2[C@H](OC[C@@H](C)[C@H](C)/C=C/[C@@H](C)[C@H]3C[C@@H](O)C4=C5C[C@H](O)[C@H]6C[C@@H](O)CC[C@]6(C)[C@H]5CC[C@@]43C)OC[C@@H](O)[C@@H]2O)OC[C@@H](O)[C@@H]1O | Active | – | – | – |
| CC(C)[C@@H](CCO[C@@H]1OC[C@@H](O)[C@H](O)[C@H]1O[C@@H]1OC[C@@H](O)[C@H](O)[C@H]1O)CC[C@@H](C)[C@H]1C[C@@H](O)[C@@H]2[C@]1(C)CC[C@@H]1[C@@]3(C)CC[C@H](O)[C@H](O)[C@@H]3[C@@H](O)C[C@]12O | – | Active | Active | – |
| CO[C@H]1[C@H](O[C@H]2[C@H](OC[C@@H](C)[C@H](C)/C=C/[C@@H](C)[C@H]3C[C@@H](O)[C@@H]4[C@]3(C)CC[C@@H]3[C@@]5(C)CC[C@H](O)[C@H](O)[C@@H]5[C@@H](O)C[C@]34O)OC[C@@H](O)[C@@H]2O)OC[C@@H](O)[C@@H]1O | – | Active | Active | – |
| CC(C)C[C@@H]1O[C@H]1[C@@](C)(O)[C@H]1CC[C@H]2[C@@H]3C[C@H](O[C@@H]4O[C@H](C)[C@@H](O)[C@H](O[C@@H]5OC[C@@H](O[C@@H]6O[C@H](CO)[C@H](O)[C@H](O)[C@H]6O[C@@H]6O[C@H](C)[C@@H](O)[C@H](O)[C@H]6O)[C@H](O)[C@H]5O[C@H]5O[C@@H](C)[C@H](O)[C@@H](O)[C@@H]5O)[C@H]4O)[C@H]4C[C@@H](OS(=O)(=O)O)CC[C@]4(C)C3=CC[C@]12C | inactive | inactive | inactive | inactive |
| CC(/C=C/[C@@H](C)[C@H]1C[C@@H](O)C2=C3C[C@H](O)C4C[C@@H](O)CC[C@]4(C)[C@H]3CC[C@@]21C)CO (some centres not stated) | – | – | Active | – |
| C[C@H](/C=C/[C@@H](C)[C@H]1C[C@@H](O)C2=C3C[C@H](O)C4C[C@@H](O)CC[C@]4(C)[C@H]3CC[C@@]21C)[C@H](C)CO (some centres not stated) | – | Active | Active | – |
| C=C(CC[C@@H](C)[C@H]1C[C@@H](O)[C@@H]2[C@]1(C)CC[C@@H]1[C@@]3(C)CC[C@H](O)[C@H](O)[C@@H]3[C@@H](O)C[C@]12O)C(C)CO[C@@H]1OC[C@@H](O)[C@H](O)[C@H]1O[C@@H]1OC[C@@H](O)[C@H](O)[C@H]1OC (some centres not stated) | – | Active | – | – |
| CC(C)[C@@H](C)C(=O)C[C@@](C)(O)[C@H]1CC[C@H]2[C@@H]3C[C@H](O[C@@H]4O[C@H](C)[C@@H](O)[C@H](O[C@@H]5OC[C@@H](O[C@@H]6O[C@H](CO)[C@H](O)[C@H](O)[C@H]6O[C@@H]6O[C@H](C)[C@@H](O)[C@H](O)[C@H]6O)[C@H](O)[C@H]5O[C@H]5O[C@@H](C)[C@H](O)[C@@H](O)[C@@H]5O)[C@H]4O)[C@H]4C[C@@H](OS(=O)(=O)O)CC[C@]4(C)C3=CC[C@@]21C | inactive | inactive | inactive | inactive |
| CC(C)/C(=C/CO[C@@H]1OC[C@@H](O)[C@H](O)[C@H]1O)CC[C@@H](C)[C@H]1C[C@@H](O)C2=C3C[C@H](O)[C@H]4C[C@@H](O)CC[C@]4(C)[C@H]3CC[C@@]21C | – | Active | Active | – |
| CO[C@H]1[C@H](O[C@H]2[C@H](OCC[C@H](CC[C@@H](C)[C@H]3C[C@@H](O)[C@@H]4[C@]3(C)CC[C@@H]3[C@@]5(C)CC[C@H](O)[C@H](O)[C@@H]5[C@@H](O)C[C@]34O)C(C)C)OC[C@@H](O)[C@@H]2O)OC[C@@H](O)[C@@H]1O | – | Active | Active | – |
| CC(C)[C@@H](O)/C=C/[C@@H](C)[C@H]1C[C@@H](O)[C@@H]2[C@]1(C)CC[C@H]1[C@@]2(O)C[C@H](O)C2C[C@@H](O)CC[C@@]21C (some centres not stated) | – | Active | Active | – |
| CC(C)CC(=O)C[C@@](C)(O)[C@H]1CC[C@H]2[C@@H]3C[C@H](O[C@@H]4O[C@H](C)[C@@H](O)[C@H](O[C@@H]5OC[C@@H](O[C@@H]6O[C@H](CO)[C@H](O)[C@H](O)[C@H]6O[C@@H]6O[C@H](C)[C@@H](O)[C@H](O)[C@H]6O)[C@H](O)[C@H]5O[C@H]5O[C@@H](C)[C@H](O)[C@@H](O)[C@@H]5O)[C@H]4O)[C@H]4C[C@@H](OS(=O)(=O)O)CC[C@]4(C)C3=CC[C@@]21C | inactive | inactive | inactive | inactive |
